This passage reports Activity results from ChEMBL document CHEMBL2074287, “Modulation of digoxin transport across Caco-2 cell monolayers by citrus fruit juices: lime, lemon, grapefruit, and pummelo” (Pharm Res, 2003).

The data set has as its target ATP-dependent translocase ABCB1 (Homo sapiens, UniProt P08183). Nature of the data set: TP_TRANSPORTER: transepithelial transport of digoxin (Digoxin: 30nM) in Caco-2 cells. The data set is classed as functional, cell-based. For orientation: Caco-2 monolayers are a common model of the intestinal barrier.

Sequence of ATP-dependent translocase ABCB1 (P08183 whole entry): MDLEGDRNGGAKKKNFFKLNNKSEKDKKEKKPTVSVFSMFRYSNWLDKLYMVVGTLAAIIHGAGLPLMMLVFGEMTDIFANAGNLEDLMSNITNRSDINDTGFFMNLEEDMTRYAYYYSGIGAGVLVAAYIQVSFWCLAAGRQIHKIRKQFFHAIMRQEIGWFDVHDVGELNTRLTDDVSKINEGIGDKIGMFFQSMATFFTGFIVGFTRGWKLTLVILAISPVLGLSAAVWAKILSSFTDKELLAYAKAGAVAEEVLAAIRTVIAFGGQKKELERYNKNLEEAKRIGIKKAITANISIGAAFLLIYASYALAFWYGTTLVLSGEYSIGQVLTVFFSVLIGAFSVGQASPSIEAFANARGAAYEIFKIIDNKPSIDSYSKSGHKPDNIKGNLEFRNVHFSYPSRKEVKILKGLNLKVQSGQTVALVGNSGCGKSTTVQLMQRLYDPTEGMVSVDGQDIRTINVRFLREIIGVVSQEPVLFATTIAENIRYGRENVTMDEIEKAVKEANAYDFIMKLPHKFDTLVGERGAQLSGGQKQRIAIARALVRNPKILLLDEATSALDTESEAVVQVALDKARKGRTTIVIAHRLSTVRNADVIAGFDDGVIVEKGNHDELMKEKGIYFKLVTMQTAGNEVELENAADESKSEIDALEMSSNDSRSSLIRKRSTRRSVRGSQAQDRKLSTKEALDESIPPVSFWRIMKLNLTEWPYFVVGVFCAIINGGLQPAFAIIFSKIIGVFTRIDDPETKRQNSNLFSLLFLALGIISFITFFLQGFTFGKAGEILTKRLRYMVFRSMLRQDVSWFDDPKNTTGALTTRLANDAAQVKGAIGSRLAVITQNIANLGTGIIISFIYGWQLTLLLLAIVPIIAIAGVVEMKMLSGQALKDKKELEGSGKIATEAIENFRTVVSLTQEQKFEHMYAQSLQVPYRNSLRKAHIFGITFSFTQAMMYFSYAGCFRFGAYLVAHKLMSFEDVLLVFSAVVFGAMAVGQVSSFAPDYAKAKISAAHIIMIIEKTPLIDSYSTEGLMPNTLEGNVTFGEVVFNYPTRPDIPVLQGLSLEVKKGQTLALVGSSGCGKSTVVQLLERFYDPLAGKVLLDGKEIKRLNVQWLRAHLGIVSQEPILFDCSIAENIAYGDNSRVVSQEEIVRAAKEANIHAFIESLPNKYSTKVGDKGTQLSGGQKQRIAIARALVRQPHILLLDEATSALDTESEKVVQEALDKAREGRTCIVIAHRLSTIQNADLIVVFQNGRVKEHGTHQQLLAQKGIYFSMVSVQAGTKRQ

Turning to PUMMELO JUICE, the Activity result was “inhibitor [+]”.
As for GRAPEFRUIT JUICE, the Activity entry was “inhibitor [+]”.
